Data as given in patent US20190192699A1, “NUCLEAR IMAGING AND RADIOTHERAPEUTICS AGENTS TARGETING CARBONIC ANHYDRASE IX AND USES THEREOF” (THE JOHNS HOPKINS UNIVERSITY, priority 2016, published 2019).
Several values for one entry are separate records, joined by “and”; a condition that tells them apart may be missing. Equal values may be shown once. Entries after “also recorded” stand apart in the source; their conditions may differ.

Tests used:
[1] = test system: CAIX-expressing SK-RC-52 tumors; assay: SPECT/CT imaging of [111In]XYIMSR-01; format: in vivo, mice; settings: 14.8 MBq (400 μCi) via tail vein
Protocol: (§1) Cell Lines and Mouse Models. Animal experiments were performed in accordance with protocols approved by the Johns Hopkins Animal Care and Use Committee (ACUC). Six-week-old female NOD/SCID mice were purchased from the Animal Resource Core of the Sidney Kimmel Comprehensive Cancer Center of Johns Hopkins and were subcutaneously injected in the lower left flank or upper right flank with 1×10^6 SK-RC-52 cells in RPMI 1640 GlutaMAX™ media (Life Technologies, Frederick, Md.) supplemented with 1% fetal bovine serum (FBS). Mice were monitored for tumor size and used for SPECT/CT imaging when the size of the tumor reached 100 mm^3.
SPECT/CT imaging of [^111In]XYIMSR-01. Mice harboring subcutaneous SK-RC-52 tumors with the lower left flank were injected with 14.8 MBq (400 μCi) of [^111In]XYIMSR-01 in 250 μL of PBS (pH=7.0) intravenously (tail vein). Anesthesia was then induced with 3% isofluorane and maintained at 2% isoflurane. Physiologic temperature was maintained with an external light source while the mouse was on the gantry. Imaging employed a CT-equipped Gamma Medica-Ideas SPECT scanner (Northridge, Calif.). SPECT data were acquired in 64 projections at 65 s per projection using medium energy pinhole collimators. A CT scan was performed in 512 projections at the end of each SPECT scan for anatomic co-registration. […]

SK-RC-52 xenografts = assay: Biodistribution of [111In]XYIMSR-01 and [177Lu]XYIMSR-01; format: in vivo, mice
Protocol: as §1
Biodistribution of [^111In]XYIMSR-01 and [^177Lu]XYIMSR-01. Mice bearing SK-RC-52 xenografts at lower left flank were injected intravenously with 740 kBq (20 μCi) of [^111In]XYIMSR-01, or [^177Lu]XYIMSR-01 in 200 μL of PBS. For competitive blocking, same tumor bearing mice were injected with 740 kBq (20 μCi) of [^111In]XYIMSR-01 and 200 nmole of 1 in 200 μL of PBS. At 1 h, 4 h, 8 h, 24 h and 48 h post-injection, mice were sacrificed by cervical dislocation and the blood was immediately collected by cardiac puncture. Heart, lungs, pancreas, spleen, fat, brain, muscle, small intestines, liver, stomach, kidney, urinary bladder, and tumor were collected. Each organ was weighed and the tissue radioactivity was measured with an automated gamma counter (1282 Compugamma CS, Pharmacia/LKBNuclear, Inc., Mt. Waverly, Vic. Australia). The percentage of injected dose per gram of tissue (% ID/g) was calculated by comparison with samples of a standard dilution of the initial dose. All measurements were corrected for radioactive decay.
Data were expressed as mean±standard deviation (SD). Prism software (GraphPAD, San Diego, Calif.) was used to determine statistical significance. Statistical significance was calculated using a paired t test. P-values […] were considered significant.

[2] = 24 hr + Block (200 nmole of 1 co-injected)

SMILES: CC(CCC(=O)N[C@@H](CC(=O)N[C@@H](CC(=O)N[C@@H](CCCCn1cc(CCCC(=O)Nc2nnc(S(N)(=O)=O)s2)nn1)C(=O)NCCOCCOCCNC(=O)CN1CCN(CC(=O)[O-])CCN(CC(=O)[O-])CCN(CC(=O)[O-])CC1)C(=O)O)C(=O)O)(c1ccc(O)cc1)c1ccc(O)cc1.[111In+3] [[^111In]XYIMSR-01]
- SPECT/CT tumor imaging finding [1]: radiotracer uptake in tumor as early as 1 h post-injection; also recorded: radiotracer uptake was observed within the tumors at 1 h post-injection; also recorded: enabled specific imaging of CAIX-expressing SK-RC-52 tumors
- Biodistribution: Bladder (SK-RC-52 xenografts; 1 hr post-injection): 4.90 ± 4.96 % ID/g
- Biodistribution: Blood (SK-RC-52 xenografts; 1 hr post-injection): 1.34 ± 0.17 % ID/g
- Biodistribution: Brain (SK-RC-52 xenografts; 1 hr post-injection): 1.23 ± 1.10 % ID/g
- Biodistribution: Fat (SK-RC-52 xenografts; 1 hr post-injection): 1.03 ± 0.24 % ID/g
- Biodistribution: Heart (SK-RC-52 xenografts; 1 hr post-injection): 5.98 ± 0.53 % ID/g
- Biodistribution: Kidney (SK-RC-52 xenografts; 1 hr post-injection): 71.26 ± 8.74 % ID/g
- Biodistribution: Liver (SK-RC-52 xenografts; 1 hr post-injection): 8.36 ± 0.73 % ID/g
- Biodistribution: Lung (SK-RC-52 xenografts; 1 hr post-injection): 45.85 ± 19.89 % ID/g
- Biodistribution: Muscle (SK-RC-52 xenografts; 1 hr post-injection): 2.34 ± 2.19 % ID/g
- Biodistribution: Pancreas (SK-RC-52 xenografts; 1 hr post-injection): 3.81 ± 0.72 % ID/g
- Biodistribution: Small intestine (SK-RC-52 xenografts; 1 hr post-injection): 9.37 ± 1.26 % ID/g
- Biodistribution: Spleen (SK-RC-52 xenografts; 1 hr post-injection): 0.52 ± 0.04 % ID/g
- Biodistribution: Stomach (SK-RC-52 xenografts; 1 hr post-injection): 16.71 ± 2.46 % ID/g
- Biodistribution: Tumor (SK-RC-52 xenografts; 1 hr post-injection): 26 % ID/g and 26.01 ± 5.74 % ID/g
- Tumor/Blood ratio (SK-RC-52 xenografts; 1 hr post-injection): 19.7 and 19.7 ± 4.8
- Tumor/Kidney ratio (SK-RC-52 xenografts; 1 hr post-injection): 0.36 ± 0.06
- Tumor/Muscle ratio (SK-RC-52 xenografts; 1 hr post-injection): 12.7 and 12.7 ± 5.8
- Biodistribution: Bladder (SK-RC-52 xenografts; 4 hr post-injection): 2.68 ± 1.89 % ID/g
- Biodistribution: Blood (SK-RC-52 xenografts; 4 hr post-injection): 0.65 ± 0.06 % ID/g
- Biodistribution: Brain (SK-RC-52 xenografts; 4 hr post-injection): 0.45 ± 0.06 % ID/g
- Biodistribution: Fat (SK-RC-52 xenografts; 4 hr post-injection): 0.42 ± 0.22 % ID/g
- Biodistribution: Heart (SK-RC-52 xenografts; 4 hr post-injection): 2.91 ± 0.45 % ID/g
- Biodistribution: Kidney (SK-RC-52 xenografts; 4 hr post-injection): 41.52 ± 6.07 % ID/g
- Biodistribution: Liver (SK-RC-52 xenografts; 4 hr post-injection): 4.00 ± 0.8 % ID/g
- Biodistribution: Lung (SK-RC-52 xenografts; 4 hr post-injection): 17.85 ± 3.55 % ID/g
- Biodistribution: Muscle (SK-RC-52 xenografts; 4 hr post-injection): 1.01 ± 0.28 % ID/g
- Biodistribution: Pancreas (SK-RC-52 xenografts; 4 hr post-injection): 1.54 ± 0.40 % ID/g
- Biodistribution: Small intestine (SK-RC-52 xenografts; 4 hr post-injection): 4.27 ± 0.69 % ID/g
- Biodistribution: Spleen (SK-RC-52 xenografts; 4 hr post-injection): 0.51 ± 0.08 % ID/g
- Biodistribution: Stomach (SK-RC-52 xenografts; 4 hr post-injection): 7.91 ± 1.28 % ID/g
- Biodistribution: Tumor (SK-RC-52 xenografts; 4 hr post-injection): 20.8 % ID/g and 20.83 ± 6.25 % ID/g
- Tumor/Blood ratio (SK-RC-52 xenografts; 4 hr post-injection): 31.9 ± 9.4
- Tumor/Kidney ratio (SK-RC-52 xenografts; 4 hr post-injection): 0.50 ± 0.15
- Tumor/Muscle ratio (SK-RC-52 xenografts; 4 hr post-injection): 21.4 ± 7.2
- Biodistribution: Bladder (SK-RC-52 xenografts; 8 hr post-injection): 2.28 ± 0.51 % ID/g
- Biodistribution: Blood (SK-RC-52 xenografts; 8 hr post-injection): 0.48 ± 0.02 % ID/g
- Biodistribution: Brain (SK-RC-52 xenografts; 8 hr post-injection): 0.59 ± 0.09 % ID/g
- Biodistribution: Fat (SK-RC-52 xenografts; 8 hr post-injection): 0.45 ± 0.08 % ID/g
- Biodistribution: Heart (SK-RC-52 xenografts; 8 hr post-injection): 2.61 ± 0.35 % ID/g
- Biodistribution: Kidney (SK-RC-52 xenografts; 8 hr post-injection): 28.79 ± 21.35 % ID/g
- Biodistribution: Liver (SK-RC-52 xenografts; 8 hr post-injection): 3.65 ± 0.65 % ID/g
- Biodistribution: Lung (SK-RC-52 xenografts; 8 hr post-injection): 17.39 ± 8.99 % ID/g
- Biodistribution: Muscle (SK-RC-52 xenografts; 8 hr post-injection): 1.09 ± 0.15 % ID/g
- Biodistribution: Pancreas (SK-RC-52 xenografts; 8 hr post-injection): 1.61 ± 0.28 % ID/g
- Biodistribution: Small intestine (SK-RC-52 xenografts; 8 hr post-injection): 4.31 ± 0.67 % ID/g
- Biodistribution: Spleen (SK-RC-52 xenografts; 8 hr post-injection): 0.64 ± 0.07 % ID/g
- Biodistribution: Stomach (SK-RC-52 xenografts; 8 hr post-injection): 8.74 ± 1.26 % ID/g
- Biodistribution: Tumor (SK-RC-52 xenografts; 8 hr post-injection): 34.0 % ID/g and 34.00 ± 15.16 % ID/g
- Tumor/Blood ratio (SK-RC-52 xenografts; 8 hr post-injection): 77.0 ± 32.5
- Tumor/Kidney ratio (SK-RC-52 xenografts; 8 hr post-injection): 3.1 ± 3.1
- Tumor/Muscle ratio (SK-RC-52 xenografts; 8 hr post-injection): 34.2 ± 16.0
- Tumor/liver ratio (SK-RC-52 xenografts; 24 h): 8.5
- uptake to tumors with simultaneously injected non-radioactive competitor 1 (SK-RC-52 xenografts; 24 h and 48 h post injection): ~1%
- tumor/organ ratio, all other organs (SK-RC-52 xenografts; 24 h post-injection): ≥ 10
- Biodistribution: Bladder (SK-RC-52 xenografts; [2]): 0.20 ± 0.07 % ID/g
- Biodistribution: Blood (SK-RC-52 xenografts; [2]): 0.03 ± 0.00 % ID/g
- Biodistribution: Brain (SK-RC-52 xenografts; [2]): 0.03 ± 0.00 % ID/g
- Biodistribution: Fat (SK-RC-52 xenografts; [2]): 0.02 ± 0.01 % ID/g
- Biodistribution: Heart (SK-RC-52 xenografts; [2]): 0.04 ± 0.01 % ID/g
- Biodistribution: Kidney (SK-RC-52 xenografts; [2]): 0.68 ± 0.14 % ID/g
